Assays:
rat TRPV1 = biological target: T1, rat TRPV1 (Rattus norvegicus, UniProt O35433, E600K); experiment: Calcium imaging of HEK 293 cells (Fluo-4/Fura-red), capsaicin-induced Ca2+ influx; format: cell-based
T1 construct: expressed in transfected cells; host or cells: HEK293 cells, transient transfection with pcDNA3.1D (Invitrogen) carrying TRPV1 (E600K) cDNA
Experimental: Transfection and Calcium imaging of HEK 293 cells. HEK293 cells were maintained under standard conditions (37° C., 5% CO2) in Dulbecco's Modified Eagle's Medium (Mediatech) supplemented with 10% fetal bovine serum, penicillin and streptomycin. pcDNA3.1D directional expression system (Invitrogen) was used to clone and express rat TRPV1 and fly NPFR1 cDNA in HEK293 cells. TRPV1 cDNA was PCR amplified from TRPV1 (E600K) sequence (Marella et al., 2006), using the following primers: 5′ […] 3′ (SEQ ID NO: 11) and 5′ […] 3′ (SEQ ID NO: 12). NPFR1 cDNA was PCR amplified from an NPFR1 cDNA plasmid(34), using two primers: 5′ […] 3′ (SEQ ID NO: 13) and 5′ […] 3′ (SEQ ID NO: 14). HEK293 cells were cultured on 8-well polyornithine-coated chambered coverglasses (Nunc) for 24 hrs before transfection. A suspension of 200 μl of water containing 0.4 μg plasmid DNA and 0.8 μl of Lipofectamine 2000 (Invitrogen) was used for transfection. The amounts of TRPV1 and NPFR1 cNDA used were 20 ng and 200 ng, respectively. pcDNA3.1 vector DNA was supplemented, when necessary, to ensure the equal amount of total DNA per transfection.
Calcium imaging was performed between 36-42 hours post transfection at 23° C. Cells were loaded with 1 μM Fluo-4 and 2 μM Fura-red (Invitrogen) for 90 min in Hanks' balanced salt solution (HBSS; Gibco), washed once with HBSS, and imaged using a Zeiss Axiovert 200M scope equipped with a Zeiss LSM 510 Meta laser scanning module. Dyes were excited at 488 nm with argon laser. Emission fluorescence was filtered by a BP505-530 and an LP585 filter. Images were collected for 300 s upon capsaicin stimulation at 1 frame s^−1, and analyzed with the SOARS analysis. NPF was synthesized by Quality Controlled Biochemicals. NPF and cyclic nucleotide analogs (Sigma) were pre-incubated at 23° C. with cells for 20-25 min before adding capsaicin.

[1] = test system: D. melanogaster post-feeding larvae; experiment: Larval food aversion (migration) assay on soft agar media; format: in vivo, Drosophila melanogaster; settings: for response of wild type larvae to sugar media: 10% sugar media, wild type larvae (FIG. 2B); for triggering larval wandering: 10% in soft agar paste, post-feeding larvae
Experimental: Behavioral Assays. The food aversion assay was performed in plastic petri dishes (60 mm in diameter). Each apple juice-agar plate contains a mix (ca. 7 ml) of 1 g of Drosophila agar powder (USB, Swampscott, Mass.) and 6 ml apple-juice solution (0.1 g carbohydrates per ml, equivalent to 20% of frozen concentrate). Other soft agar media were made by mixing 1 g agar powder with 6.5 ml of distilled water or solution containing 10% fructose, 10% lactose, 10% sorbitol or 50 μM capsaicin, respectively. The amount of agar powder may require adjustment depending on agar quality. Twenty-five new post-feeding larvae (96 h AEL) were transferred onto a plate. The larvae were allowed to move freely on the medium, and those that crawled onto the plastic surface became less mobile and eventually formed pupae there. The percent of pupae on agar media was scored after 24 hours. All experiments were performed at room temperature except for the temperature shift assay. In these experiments, larvae and food media were pre-incubated at 30° C. for 60 min before the assay. The larvae were subsequently transferred onto the medium and kept at 30° C. All assays were performed in the dark. At least three separate trials were performed per assay.
(§1) Behavioral assays. The migration assay on soft agar media was performed as described previously (Xu et al., 2008), which is hereby incorporated by reference herein in its entirety. Twenty-five postfeeding larvae (96 h AEL) in one plate were allowed to move freely on the medium, and those that crawled onto the plastic surface became less mobile, and eventually formed pupae there. The percentage of pupae on agar media was scored after 24 hours. The clumping assay was also described in the following, which is hereby incorporated by reference herein in its entirety (Wu et al., 2003). Briefly, 45 mm petri dishes containing solid fructose agar (3% agar in a 10% fructose solution) were coated with a thin layer of yeast paste (0.5 g yeast powder in 10% fructose solution). Thirty larvae per plate were allowed to browse for 30 min, and those in clumps were scored immediately. The social burrowing assay was performed on solid agar media containing apple juice or 10% fructose, as described (Wu et al., 2003). All assays, unless stated otherwise, were performed at room temperature in the dark. At least three separate trials were performed per assay.

[2] = biological target: T2, VR1E600K, a variant of vanilloid receptor TRPV1 (Rattus norvegicus, UniProt O35433, E600K); experiment: Capsaicin avoidance (migration) of larvae expressing mammalian TRPV1 in PAIN neurons; format: in vivo, Drosophila melanogaster
T2 construct: expressed in transfected cells; host or cells: Drosophila melanogaster larvae, PAIN neurons (pain-gal4 x UAS-VR1E600K / UAS-TRPV1 transgenic line, Marella et al. 2006)
T2 sequence (O35433 whole entry E600K, the tested form may be a part): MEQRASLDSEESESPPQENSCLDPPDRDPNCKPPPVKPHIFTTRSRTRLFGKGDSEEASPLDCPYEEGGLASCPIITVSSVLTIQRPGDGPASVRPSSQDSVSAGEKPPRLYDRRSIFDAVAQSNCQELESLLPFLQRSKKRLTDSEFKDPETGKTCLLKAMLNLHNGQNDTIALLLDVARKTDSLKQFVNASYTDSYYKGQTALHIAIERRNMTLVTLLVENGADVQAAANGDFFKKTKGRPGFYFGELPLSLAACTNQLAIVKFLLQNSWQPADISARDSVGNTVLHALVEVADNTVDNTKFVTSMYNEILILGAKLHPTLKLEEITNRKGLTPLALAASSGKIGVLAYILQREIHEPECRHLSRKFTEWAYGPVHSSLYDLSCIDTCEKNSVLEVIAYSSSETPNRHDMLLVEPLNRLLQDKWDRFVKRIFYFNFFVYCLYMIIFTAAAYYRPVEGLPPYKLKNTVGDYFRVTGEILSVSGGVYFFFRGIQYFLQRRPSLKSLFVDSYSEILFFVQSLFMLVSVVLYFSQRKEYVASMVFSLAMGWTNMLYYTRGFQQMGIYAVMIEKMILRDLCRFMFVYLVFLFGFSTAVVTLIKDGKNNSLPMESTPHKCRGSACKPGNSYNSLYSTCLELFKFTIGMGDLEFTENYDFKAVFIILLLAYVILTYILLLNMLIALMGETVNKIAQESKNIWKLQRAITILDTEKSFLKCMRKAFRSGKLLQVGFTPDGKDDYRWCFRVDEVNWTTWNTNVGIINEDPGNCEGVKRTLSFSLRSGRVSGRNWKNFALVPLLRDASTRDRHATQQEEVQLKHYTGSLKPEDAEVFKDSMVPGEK
From the text: To provide further evidence that larval wandering behavior represents an aversive response to fructose, pain-gal4 was used to express a mammalian TRP channel protein VR1E600K, a variant of vanilloid receptor TRPV1 responsive to a spicy substance capsaicin from chili peppers (see the following references, which are incorporated herein by reference in their entireties: Caterina, M. J., et al., 1997; Marella, S., et al., 2006; Tobin, D. M., et al., 2002).
Behavioral assays. The migration assay on soft agar media was performed as described previously (Xu et al., 2008), which is hereby incorporated by reference herein in its entirety. […] The percentage of pupae on agar media was scored after 24 hours. […]

[3] = biological target: T2, VR1E600K, a variant of vanilloid receptor TRPV1; experiment: Two-choice medium preference assay (capsaicin vs capsaicin-free media); format: in vivo
Experimental: The two-choice medium preference assay was performed on a 2.5% agar plate. The apple juice or water agar paste is the same as described above. 10 μl of 5 mM capsaicin stock solution (in 100% ethanol) or 10 μl ethanol was added to each ml of the agar media. 30 larvae were washed extensively to remove any food particles. They were then placed between the two piles of capsaicin and capsaicin-free media (1 cm in diameter), which are located 4 mm apart. The number of larvae in each medium was recorded after 20 min. A preference index was defined as the fraction of larvae choosing the capsaicin-free medium, minus the fraction of larvae choosing the capsaicin medium.

[4] = test system: D. melanogaster post-feeding larvae; experiment: Larval aggregation / cooperative burrowing on solid agar media; format: in vivo, Drosophila melanogaster; settings: solid 10% fructose agar, post-feeding larvae 96 hr AEL
Experimental: as §1

[5] = test system: pain-expressing sensory neurons; experiment: Calcium imaging (yellow cameleon 2.1, SOARS analysis) of larval sensory neurons; format: cell-based, Drosophila melanogaster
Experimental: Imaging. The live images of second instar larvae (ca. 48 h AEL) expressing DsRed driven by pain-gal4 were obtained using a Leica epifluorescence microscope. The immunofluorescence images were taken by a Zeiss LSM 510 Meta confocal microscope and processed by Zeiss AIM Image Examiner. […] Larvae were dissected in a modified HL6 solution containing lactose (HL6-Lac, 23.7 mM NaCl, 15 mM MgCl2, 24.8 mM KCl, 0.5 mM CaCl2, 10 mM NaHCO3, 5 mM HEPES, 240 mM lactose)^38. An incision was made along the dorsal midline, and the gut and the fat bodies were removed. The tissue was placed ventral side up in HL6 solution on a silicon-coated coverslip (Sylgard 184, DOW Corning Corp., Midland, Mich.) in a Dvorak-Stotler perfusion chamber (Lucas Highland, Chantilly, Va.). A minute amount of cyanoacrylate glue (Nexaband S/C, Abott Laboratories, North Chicago, Ill.) was applied to the edge of the cuticle using a glass micropipette to immobilize the tissue. The imaging was performed on a Zeiss LSM 510 Meta confocal microscope (Carl Zeiss Microimaging, Thornwood, N.Y.). YC2.1 was excited at 458 nm with an argon laser. Emission fluorescence was filtered by a BP 475-525 filter (cyan) and an LP 530 filter (yellow). 256×256 pixel images for ratiometric analysis were collected at 1 frame s^−1. The tissue was perfused at a rate of 8.3 ul s^−1 with HL6-Lac, periodically alternating with a modified HL6 solution containing fructose (HL6-Fru, with 240 mM fructose substituting 240 mM lactose in HL6-Lac), switching at 120-second intervals for a total of 800 seconds. The images were subsequently analyzed with the SOARS method (Statistical Optimization for the Analysis of Ratiometric Signals, Version 1.1) as described in the following references, which are hereby incorporated by reference herein in their entireties (Fan, X., et al., 2007; Broder, J., et al., 2007), using Matlab (MathWorks, Natick, Mass.; also see http://www.engr.uga.edu/research/groups/atslab/Software.html).
In brief, SOARS is a multivariate statistical optimization procedure performed on both CFP and YFP channels of the FRET imaging data. The analysis results in a set of eigenimages and associated time courses that represent the part of the imaged signal displaying statistically significant spatial correlation and temporal anti-correlation (e.g., the aspects of the signal that are demonstrable due to FRET). These eigenimages represent the spatial distribution of anti-correlated FRET changes in response to sugar stimulation. Because the stimulus was periodic, the time courses were tested for the presence of stimulus-locked activity. To quantify the significance of the periodic part of the FRET response, p-values for a periodic (sinusoidal) response at the stimulus frequency were calculated using multitaper harmonic analysis (a common method for the detection of sinusoids in noisy data) as described in the following references, which are hereby incorporated herein by reference in their entirety. (Thomson 1982; Mitra et al., 1999, Sornborger et al., 2003; Mitra et al., 2008).
In vivo calcium imaging. […] To quantify the significance of anti-correlated FRET response to fructose stimulation, p-values were calculated for a periodic (sinusoidal) response at the stimulus frequency using multitaper harmonic analysis, a common method for the detection of sinusoids in noisy data (Thomson, 1982), which is hereby incorporated by reference herein in its entirety.

rats = settings: injected into the forebrain of rats, paw-withdraw test; cited from earlier work
[6] = HEK 293 cells, cyclic nucleotide analog pre-incubated 20-25 min before capsaicin

T1 sequence (O35433 whole entry E600K): as the sequence (O35433 whole entry E600K, the tested form may be a part) above

## Nc1ncnc2c1nc(Br)n2[C@@H]1O[C@@H]2COP(=O)(O)O[C@H]2[C@H]1O [8-Br-cAMP]
Rat TRPV1; [6]
  effect on TRPV1-mediated Ca2+ influx: significantly increased

## Nc1nc2c(nc(Br)n2[C@@H]2O[C@@H]3COP(=O)(O)O[C@H]3[C@H]2O)c(=O)[nH]1 [8-Br-cGMP]
Rat TRPV1; HEK 293 cells expressing NPFR1 and TRPV1, in the presence of 8-Br-cGMP
  effect on NPFR1 suppression of TRPV1: significantly enhanced
Rat TRPV1; [6]
  effect on TRPV1 activity: slightly reduced

## COc1cc(CNC(=O)CCCC/C=C/C(C)C)ccc1O [capsaicin]
[1]; wild type Drosophila larvae (no TRPV1)
  response of wild type larvae to capsaicin: neither attractive nor aversive response
[2]; 400 nM capsaicin, larvae expressing UAS-TRPV1 driven by pain-gal4
  migratory response to capsaicin agar paste: migrate away
[2]; 25 μM capsaicin, control larvae (e.g., VR1E600K alone, no driver)
  response to capsaicin-agar medium, control larvae: no aversive response
[2]; 25 μM capsaicin, post-feeding larvae expressing VR1E600K driven by pain-gal4
  migratory response to capsaicin-agar medium: migrated away
[3]; post-feeding VR1E600K-expressing larvae
  medium preference in two-choice assay, post-feeding larvae: preference for capsaicin-free media
[3]; younger feeding VR1E600K-expressing larvae (74 h AEL)
  medium preference in two-choice assay, feeding larvae: no such preference
Rat TRPV1; HEK293 cells transfected with TRPV1 cDNA alone, 400 nM capsaicin
  time to significant Ca2+ influx in response to capsaicin: ≤ 30 s

## O=C(CO)[C@@H](O)[C@H](O)[C@H](O)CO [fructose]
[1]
  response of wild type larvae to sugar media: aversive
[1]; w1118 new post-feeding larvae (ca. 96 h AEL), soft agar paste, apple juice or 10% fructose
  larvae that moved away from the medium / pupated outside of the medium: about 80%
[4]
  larval grouping behavior on solid medium: aggregation and cooperative burrowing
[5]; pain^gal4/+, UAS-YC 2.1/+, 74 h AEL, lactose-fructose alternate, ventral sensory neurons in T2 and T3 segments
  Anti-correlated signal: No
[5]; pain^gal4/+, UAS-YC 2.1/+, 96 h AEL, lactose-fructose alternate, chordotonal neurons in A1 segment
  Anti-correlated signal: No
[5]; pain^gal4/+, UAS-YC 2.1/+, 96 h AEL, lactose-fructose alternate, ventral sensory neurons in T2 and T3 segments
  Anti-correlated signal: Yes
[5]; pain^gal4/pain^3, UAS-YC 2.1/+ (pain mutant), 96 h AEL, lactose-fructose alternate, ventral sensory neurons in T2 and T3
  Anti-correlated signal: No

## OC[C@H]1O[C@@H](O[C@H]2[C@H](O)[C@@H](O)C(O)O[C@@H]2CO)[C@H](O)[C@@H](O)[C@H]1O (stereo partly drawn) [lactose]
[1]
  triggering larval wandering: not effective
[5]; pain^gal4/+, UAS-YC 2.1/+, 96 h AEL, lactose-lactose alternate, ventral sensory neurons in T2 and T3
  Anti-correlated signal: No

## OC[C@@H](O)[C@@H](O)[C@H](O)[C@@H](O)CO [sorbitol]
[1]
  triggering larval wandering: not effective

## OC[C@H]1O[C@@](CO)(O[C@H]2O[C@H](CO)[C@@H](O)[C@H](O)[C@H]2O)[C@@H](O)[C@@H]1O [sucrose]
[1]
  response of wild type larvae to sugar media: aversive

## NPY: abundant signaling peptide in the brain of mammals
rats
  nociceptive threshold: significantly elevated

B1: NPF: Drosophila neuropeptide F, sole fly homolog of human NPY; synthesized by Quality Controlled Biochemicals (SEQ ID NO: 5) (peptide)
chain: MCQTMRCILVACVALALLAAGCRVEASNSRPPRKNDVNTMADAYKFLQDLDTYYGDRARVRFGKRGSLMDILRNHEMDNINLGKNANNGGEFARGFNEEEIF
modifications: Drosophila melanogaster
Rat TRPV1; HEK293 cells co-transfected with NPFR1 and TRPV1 cDNAs, in the presence of NPF (1 mM per FIG. 15 legend), 400 nM capsaicin
  effect of NPF on response to capsaicin: drastically attenuated and delayed responses
Rat TRPV1; HEK293 cells transfected with TRPV1 cDNA alone
  effect of NPF on TRPV1 activity: mild reduction

From US20100119454A1, “Use of the conserved Drosophila NPFR1 system for uncovering interacting genes and pathways important in nociception and stress response” (priority 2008, published 2010)
